Reference: paper PMC7461584, “N-(2′-Hydroxyphenyl)-2-Propylpentanamide (HO-AAVPA) Inhibits HDAC1 and Increases the Translocation of HMGB1 Levels in Human Cervical Cancer Cells” (International Journal of Molecular Sciences, 2020)
Where “and” joins values, the source holds several entries; their conditions need not be identical. Equal entries are not always repeated. Entries after “also recorded” stand apart in the source; their conditions may differ.

Columns and labels:
HMGB1 in SiHa cells = assay: Localization of HMGB1 by confocal microscopy; format: cell-based, human; conditions: 12 h; for HMGB1 fluorescence intensity: vs DMSO vehicle
Method: A total of 20 × 10^3 cells per well were added to 24-well plates and incubated for 24 h in DMEM with FBS. Then, the cells were washed with phosphate buffered saline (PBS 1X). The groups received the following treatments: VPA at 1.4 and 0.35 mM, HO-AAVPA at 0.2 and 0.005 mM, vehicle (DMSO 0.1%), and incubated for 12 h. After incubation, the cells were fixed with paraformaldehyde (PFA 4%) at 37 °C for 20 min and permeabilized (PBS Tween-Triton 0.5%) for 5 min. Subsequently, the cells were washed and the primary antibody, anti-HMGB1 (GTX101277, GeneTex, Alton Pkwy Irvine, CA, USA), was added at a ratio of 1:1000 and incubated overnight. The secondary antibody, donkey anti-rabbit IgG H&L (Alexa Fluor 647, Thermo Fisher Scientific, México City, Mexico), was added at a ratio of 1:1000 and incubated at 4 °C for 4 h. Finally, the slides were washed with PBS and mounted with Vectashield (Mounting Laboratories, Inc. Burlingame, CA, USA).
The images were collected and analyzed with an Axioskop 2 mot plus confocal fluorescence microscope (Carl Zeiss, Mexico City, Mexico) at EC Plan-Neofluar 20×–40×/0.5 Ph2: LP 650, LP 505.

[1] = test system: ROS (O2−·) levels in SiHa cells; assay: Quantification of superoxide anion by electronic paramagnetic resonance; format: cell-based, human; conditions: 48 h
Method: The SiHa cells (500 × 10^3) were seeded in a […] dish and kept at 37 °C in a humidified atmosphere with 5% CO2 until they reached 70% confluence. After, the cells were treated with two different concentrations of VPA and HO-AAVPA (1.4 and 0.2 mM) and maintained for 48 h, the experiment was performed in triplicate and used as a control for data comparison with the SiHa cells treated only with medium. Next, the cells were trypsinized and centrifuged at 3000 rpm for 10 min, and the cell pellet was treated with the radical scavenger CM-H (1 hydroxy-3-methoxycarbonyl-2,2, 5,5-tetramethyl pyrrolidine) diluted in Krebs buffer (99 mM NaCl, 4.69 mM KCl, 2.5 mM CaCl2 × 2H2O, 1.2 mM MgSO4 × 7 H2O, 2.5 mM NaHCO3, 1.03 mM KH2PO4, 5.6 mM D-Glucose, and 20 mM Na-HEPES) with sodium diethyldithiocarbamate trihydrate (DETEC; 5 μM) and deferoxamine methane sulfonate salt (DF 25 μM) at a 89:3:8% v/v ratio of Krebs buffer: DETEC:DF. The stock solution of CMH (10 mM) was used to dilute each sample to 0.5 mM. The CM-H solution and the sample preparation were processed inside a nitrogen atmosphere chamber. The samples containing CM-H were incubated for 30 min at 37 °C with constant shaking. After the samples were centrifuged at 3000 rpm for 15 min, 50 µL of the supernatant was taken up with capillaries (Corning, Glendale, CA, USA) inside the nitrogen chamber, and each of the capillaries were sealed on both sides to determine the EPR measurements.
The measurements of O2^−· formation were performed in a Bruker e-scan spectrometer with the following parameters recorded: magnetic field 3490 G, window: 60 G, amplitude: 1.5 G, gain: 56.4, power: 0.0155 mW; and frequency: 9.743 GHz. WinEPR Acquisition software was used to analyze the results. The intensity of each sample was measured and normalized to the cell number for each sample. Finally, the result was expressed as the intensity for 10,000 cells.

[2] = set-up: method as in PMID 32387339, PMID 30236821, PMID 3146521; conditions: rat model; ref [19],[20],[21]; cited from earlier work
cervical cancer cells = test system: cervical cancer cells; set-up: method as in PMID 26942921; conditions: ref [25], cited from earlier work
HDAC1 = biological target: T1, HDAC1 (Homo sapiens, UniProt Q13547); assay: Fluor de LYS HDAC1 inhibitory activity assay; format: biochemical; conditions: 250 ng/well, 37 °C, 5 µM substrate; mean ± SE
T1 construct: purchased Enzo Life Sciences BML-AK511

HDAC6 = biological target: T2, HDAC6 (Homo sapiens, UniProt Q9UBN7); assay: Fluor de LYS HDAC6 inhibitory activity assay; format: biochemical
T2 construct: purchased Enzo Life Sciences BML-AK516
T2 sequence (Q9UBN7 1-1215): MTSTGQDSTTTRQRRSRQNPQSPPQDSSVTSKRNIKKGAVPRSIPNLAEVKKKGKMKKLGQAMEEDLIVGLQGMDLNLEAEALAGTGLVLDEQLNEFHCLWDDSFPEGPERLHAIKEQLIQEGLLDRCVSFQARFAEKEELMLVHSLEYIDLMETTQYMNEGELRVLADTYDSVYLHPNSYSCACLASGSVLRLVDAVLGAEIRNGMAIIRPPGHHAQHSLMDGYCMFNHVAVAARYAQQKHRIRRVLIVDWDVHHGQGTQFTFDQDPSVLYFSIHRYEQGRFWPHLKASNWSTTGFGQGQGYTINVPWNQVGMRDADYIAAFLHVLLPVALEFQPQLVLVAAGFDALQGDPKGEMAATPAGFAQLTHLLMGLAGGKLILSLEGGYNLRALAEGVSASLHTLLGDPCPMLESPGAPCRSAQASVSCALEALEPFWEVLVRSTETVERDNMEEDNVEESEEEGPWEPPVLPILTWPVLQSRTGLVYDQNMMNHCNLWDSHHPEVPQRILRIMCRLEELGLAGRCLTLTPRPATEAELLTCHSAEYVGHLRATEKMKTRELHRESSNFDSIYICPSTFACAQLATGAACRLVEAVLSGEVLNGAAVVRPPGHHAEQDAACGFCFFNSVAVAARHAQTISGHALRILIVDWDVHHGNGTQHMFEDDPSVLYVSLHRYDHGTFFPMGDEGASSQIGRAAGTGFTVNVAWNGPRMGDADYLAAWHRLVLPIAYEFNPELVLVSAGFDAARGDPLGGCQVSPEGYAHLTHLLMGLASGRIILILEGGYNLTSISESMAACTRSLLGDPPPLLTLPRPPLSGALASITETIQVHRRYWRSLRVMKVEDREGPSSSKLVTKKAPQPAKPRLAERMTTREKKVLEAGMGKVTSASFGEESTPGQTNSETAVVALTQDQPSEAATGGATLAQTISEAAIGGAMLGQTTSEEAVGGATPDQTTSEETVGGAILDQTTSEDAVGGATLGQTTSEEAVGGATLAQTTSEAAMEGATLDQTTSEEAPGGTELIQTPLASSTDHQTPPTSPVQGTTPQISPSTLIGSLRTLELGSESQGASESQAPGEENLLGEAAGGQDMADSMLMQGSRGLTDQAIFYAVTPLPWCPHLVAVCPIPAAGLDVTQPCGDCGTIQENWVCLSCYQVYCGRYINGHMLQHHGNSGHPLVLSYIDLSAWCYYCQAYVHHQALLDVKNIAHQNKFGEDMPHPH

HDAC8 = biological target: T3, HDAC8 (Homo sapiens, UniProt Q9BY41); assay: Fluor de LYS HDAC8 inhibitory activity assay; format: biochemical
T3 construct: purchased Enzo Life Sciences BML-AK518
T3 sequence (Q9BY41 1-377): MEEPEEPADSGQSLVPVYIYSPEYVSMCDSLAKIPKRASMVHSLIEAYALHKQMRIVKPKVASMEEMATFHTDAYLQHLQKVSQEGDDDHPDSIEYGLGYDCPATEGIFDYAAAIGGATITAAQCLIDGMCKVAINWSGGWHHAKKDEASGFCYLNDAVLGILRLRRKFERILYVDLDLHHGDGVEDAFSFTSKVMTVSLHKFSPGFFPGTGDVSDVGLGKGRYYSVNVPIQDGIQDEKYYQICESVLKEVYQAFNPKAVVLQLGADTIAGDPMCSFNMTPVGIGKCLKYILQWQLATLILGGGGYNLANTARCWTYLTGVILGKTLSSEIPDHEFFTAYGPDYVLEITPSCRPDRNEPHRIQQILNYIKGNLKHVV

[3] = Cell viability by MTT assay; format: cell-based, human; conditions: human, SiHa cells, at 2.5 mM
Method: (§1) SiHa cells were kindly donated by Dr. Nicolás Villegas Sepulveda from the Department of Molecular Biomedicine, […], México. SiHa cells were cultured in Dulbecco’s modified Eagle’s medium (DMEM Gibco, Life Technologies, Invitrogen, Sigma-Aldrich Co., Toluca City Mexico), supplemented with 10% fetal bovine serum (FBS, Biowest, Kansas City, MO, USA) and antibiotic and antimycotic agents (Gibco, Fisher Scientific UK Ltd, Loughborough, UK). The cultures were kept at 37 °C in a humidified atmosphere with 5% CO2.
(§2) After seeding 10 × 10^3 cells per well in transparent 96-well plates, the cells were incubated for 24 h in DMEM medium with FBS. Then, the cells were incubated with different concentrations of HO-AAVPA (0.5, 1.0, 1.5, 2.0, and 2.5 mM) and VPA (0.625, 1.25, 2.5, 5.0, and 7.5 mM). After 48 h of incubation, the supernatant was removed. Then, 20 μL of MTT solution (0.5 mg/mL) in buffer was added, and the cells were incubated at 37 °C for 4 h. After the MTT solution was removed from all the wells, the formazan salts were solubilized with 100 μL of DMSO, and the absorbance of each well was read at 550 nm on a spectrophotometer (Multiskan EX Microplate Photometer, Thermo Scientific, Mexico).

SiHa cells = assay: Cell viability by MTT assay; format: cell-based, human; conditions: 48 h
Method: as §1, §2

T1 sequence (Q13547 whole entry): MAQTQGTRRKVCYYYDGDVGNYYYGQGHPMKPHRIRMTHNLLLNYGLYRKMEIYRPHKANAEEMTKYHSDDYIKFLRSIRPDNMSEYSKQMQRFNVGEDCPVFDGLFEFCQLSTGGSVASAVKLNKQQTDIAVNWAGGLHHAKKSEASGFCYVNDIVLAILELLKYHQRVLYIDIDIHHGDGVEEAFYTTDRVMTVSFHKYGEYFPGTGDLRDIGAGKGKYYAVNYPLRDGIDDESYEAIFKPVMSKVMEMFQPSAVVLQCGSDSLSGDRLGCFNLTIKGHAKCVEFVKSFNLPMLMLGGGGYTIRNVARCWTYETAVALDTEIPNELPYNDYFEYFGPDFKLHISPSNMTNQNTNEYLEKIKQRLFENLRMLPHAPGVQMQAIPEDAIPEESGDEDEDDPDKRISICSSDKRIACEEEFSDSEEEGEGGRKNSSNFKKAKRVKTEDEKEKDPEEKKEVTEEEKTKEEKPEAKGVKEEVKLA

| SMILES | HMGB1 localization (HMGB1 in SiHa cells; HO-AAVPA 0.2 mM, VPA 1.4 mM) | HMGB1 fluorescence intensity (HMGB1 in SiHa cells; HO-AAVPA 0.2 mM, VPA 1.4 mM) | ROS (O2−·) production ([1]; 0.2 mM) | ROS (O2−·) production ([1]; 1.4 mM) | half-life [2] [h] | concentration that did not produce significant effect on the proliferation (cervical cancer cells; cervical cancer cells) [mM] | concentration with cytotoxic effects (cervical cancer cells; other studies) [µM] | IC50 (HDAC1) | IC50 (HDAC6; 400 ng/well, 37 °C, 12 µM substrate, mean ± SE) [µM] | inhibitory activity on HDAC6 (HDAC6; tested at 1-1000 µM) | IC50 (HDAC8; 1 U/well, 30 °C, 50 µM substrate, mean ± SE) [µM] | inhibitory activity on HDAC8 (HDAC8; tested at 1-1000 µM) | viability at 48 h, 2.5 mM [3] [%] | concentration causing cell death (SiHa cells; concentration-dependent) [mM] | IC50 (SiHa cells; Homo sapiens, SiHa, MTT) [µM] | HMGB1 localization (HMGB1 in SiHa cells; low concentrations: HO-AAVPA 0.005 mM, VPA 0.35 mM) |
| --- | --- | --- | --- | --- | --- | --- | --- | --- | --- | --- | --- | --- | --- | --- | --- | --- |
| CCCC(CCC)C(=O)O [VPA, valproic acid, reference compound] | HMGB1 is expressed in a larger amount in the nucleus; also recorded: observed predominantly in the nucleus | increase in the fluorescence was more; also recorded: significant increase of HMGB1 | did not have a significant difference in ROS production | did not have a significant difference in ROS production | 1 | 1 | ~3000 | – | – | – | – | – | – | – | – | – |
| CCCC(CCC)C(=O)Nc1ccccc1O [HO-AAVPA, N-(2′-hydroxyphenyl)-2-propylpentanamide] | high amount of HMGB1 in the cytoplasm than in the nucleus; also recorded: greater intensity of translocation of HMGB1 from the nucleus to the cytoplasm | increase in the fluorescence was more; also recorded: significant increase of HMGB1; also recorded: statistically higher | slightly lower, but still higher than the control | ROS production was greater; also recorded: increased | 4 | – | – | 153 µM and 154 µM | > 1000 | no inhibitory activity; also recorded: no inhibition was observed | > 1000 | no inhibitory activity; also recorded: no inhibition was observed | ~25 | ≥ 1 | 1600 | more HMGB1 in the cytoplasm than VPA |
